Assay in all cases: growth of human tumour cells (NCI), 48 h
The subject of assay [1] is HS 578T breast.
For assay [2], the system named is HT29 colon.
Assay [3] relates to 786-0 renal.
Assay [4] has as its system IGROV1 ovarian.
The subject of assay [5] is HCC-2998 colon.
Assay [6] has as its system SW-620 colon.
Assay [7] relates to A549 NSCLC.
Assay [8] has as its system DU-145 prostate.
For assay [9], the system named is SF-268 CNS.
Assay [10] has as its system NCI-H23 lung.
The test system of assay [11] is SK-MEL-5 melanoma.
The subject of assay [12] is NCI-H522 lung.
The subject of assay [13] is HCT-15 colon.
Assay [14] has as its system SNB-75 CNS.
Assay [15] has as its system BT-549 breast.
Assay [16] relates to HOP-92 NSCLC.
For assay [17], the system named is TK-10 renal.
In assay [18] the test system is SK-MEL-2 melanoma.
Assay [19] relates to T-47D breast.
For assay [20], the system named is CAKI-1 renal.

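Protocol summary: plate cells (96-well), add compound at 5 concentrations, incubate 48 h, interpolate endpoints linearly. TGI denotes the concentration required for complete inhibition of growth.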

In the case of `Cc1c2ccnc(C(=O)NCCN(C)C)c2cc2c3cc(O)ccc3n(C)c12`, the TGI is 4.03 µM in assay [1]; 3.87 µM in assay [2]; 3.37 µM in assay [3]; 6.72 µM in assay [4]; 2.11 µM in [5]; 4.36 µM in [6]. In addition, the TGI in [7] turned out to be 7.26 µM; in [8], 0.771 µM; in assay [9] it was 2.28 µM; in assay [10], 1.7 µM; in assay [11], 1.45 µM; in assay [12] it was 1.02 µM. In addition, the TGI in [13] was determined as 4.39 µM; in assay [14], 2.19 µM; in assay [15] it was 10.7 µM; in assay [16], 3.59 µM; in assay [17], 9.05 µM; in assay [18], 1.7 µM. The same molecule displayed a TGI in assay [19] of 2.83 µM.
As for `COC(=O)CCC(C)[C@H]1CCC2C3C(C[C@H](OC(C)=O)[C@@]21C)[C@@]1(C)CCC2(C[C@H]1C[C@H]3OC(C)=O)OOC1(CCCC1)OO2` (some centres undefined), the TGI in assay [1] is over 100 µM; in assay [2], over 100 µM; in assay [3] it was over 100 µM; in assay [4], 25.4 µM; in assay [20], 92 µM; in assay [5], over 100 µM. Further, the TGI in [6], in assay [7], in [8], in assay [9], in [10] and in assay [11] was over 100 µM each time. Also, the TGI in assay [12] is over 100 µM; in [13], over 100 µM; in assay [14], over 100 µM; in assay [15] it was over 100 µM; in [16], 64.8 µM; in assay [17], over 100 µM. Further, the TGI is over 100 µM in assay [18] and 75 µM in assay [19].
In the case of `O=C1C(C(O)(C(F)(F)Cl)C(F)(F)Cl)CCCC1C(O)(C(F)(F)Cl)C(F)(F)Cl` (centres undefined), the TGI in assay [1], in assay [2], in assay [3], in assay [4], in assay [20] and in [5] was over 10 µM throughout. The TGI in assay [6], in assay [7], in assay [8], in assay [9], in assay [10] and in [11] was over 10 µM throughout. The TGI in [12], in assay [13], in [15], in [16], in [17] and in assay [18] was over 10 µM throughout. The same molecule displayed a TGI in [19] of over 10 µM.
Turning to `CC1(C)CC(O)C2=C(O1)C(=O)c1ncccc1C2=O` (centres undefined), the TGI is 6.56 µM in [1]; 35.8 µM in assay [2]; 3.62 µM in [3]; 6.14 µM in assay [4]; 4.45 µM in assay [20]; 14.6 µM in assay [5]. Also, the TGI in assay [6] was 3.56 µM; in assay [7], 23.4 µM; in assay [8] it was 10 µM; in assay [9], 4.85 µM; in assay [10] it was 3.24 µM; in assay [11] it was 3.1 µM. The TGI came to 3.86 µM in assay [12]; 12 µM in assay [13]; 2.1 µM in [14]; 3.18 µM in assay [15]; 5.44 µM in assay [16]; 20.1 µM in assay [17]. For the same molecule, the TGI is 6.74 µM in [18] and 5.91 µM in assay [19].
Turning to `c1ccc2c(CN3CCN(Cc4c[nH]c5ccccc45)CC3)c[nH]c2c1`, the TGI in [1] came to 36.2 µM; in [2] it was 36.1 µM; in [3] it was 31.6 µM; in [4], 27.4 µM; in [20] it was 69.4 µM; in assay [5], 3.29 µM. The TGI came out at 93.9 µM in assay [6]; 40.7 µM in assay [8]; 36 µM in [9]; 42.7 µM in assay [10]; 29.1 µM in assay [11]; 31.3 µM in [12]. Moreover, the TGI stood at 44.4 µM in assay [13]; 30.2 µM in assay [14]; 58.6 µM in assay [15]; 31.2 µM in [16]; 29.1 µM in [17]; 31.5 µM in assay [18]. In assay [19], this molecule yielded a TGI of 39.1 µM.
For `CC(C)(C)c1cc(-c2cc(C(C)(C)C)[nH]n2)n[nH]1`, the TGI in assay [1], in [2], in assay [3], in [4], in assay [20] and in assay [5] was over 100 µM in each case. Moreover, the TGI in assay [6], in [7], in assay [8], in assay [9], in [10] and in [11] was over 100 µM throughout. The TGI in [12], in [13], in assay [15], in assay [16], in assay [17] and in assay [18] was over 100 µM in each case. Further, the TGI in [19] was over 100 µM.
For the molecule `COc1ccc(NC(=S)N/N=C\c2ccc(NC(C)=O)cc2)cc1`, the TGI in assay [1], in [2], in [3], in assay [4], in assay [20] and in assay [5] was over 100 µM throughout. The TGI in [6], in assay [7], in assay [8], in assay [10], in assay [11] and in assay [12] was over 100 µM throughout. In addition, the TGI in assay [14], in assay [15], in assay [16], in assay [17], in assay [18] and in assay [19] was over 100 µM each time.

For the origin of these results see PubChem BioAssay (NCI).
